“Also recorded” adds a separate entry of the source.
Tests used:
Assay type in all cases: cell-based, human
bleomycin hydrolase mRNA = assay: Effect of cytokines on bleomycin hydrolase mRNA expression by quantitative PCR (Experiment 5, FIG. 14); conditions: proliferative stage cultured keratinocytes, incubated 24 hours; IL-4 and TNF-α 0.1-10 ng/ml, IFN-γ 1.0-100 ng/ml
Experimental: (§1) Normal human epidermal keratinocytes derived from neonatal epidermis (Kurabo, Osaka, Japan) were cultured in EpiLife medium (Cascade Biologics, Portland, Oreg.) containing low-concentration (0.03 mM) calcium and HKGS Growth Supplement (Cascade Biologics). All cells were incubated at 37° C. while supplying 5% CO2 and were used within 4 passages. Cells were collected at 70% confluence, 100% confluence, 2 days after confluence and 2 days after confluence in 2 mM calcium.
The expression level of bleomycin hydrolase in keratinocytes was measured by quantitative PCR using the method described below. Measurement was carried out using the Light Cycler 480 (Roche Diagnostics GmbH, Mannheim, Germany), while Light Cycler FastStart DNA Master CYBR Green I was used for the reagent. 0.6 μl aliquots of each of the following bleomycin hydrolase primers and […] of water were added to 10 μl of SYBR Green I master mix to bring to a total volume of 20 μl followed by carrying out 45 cycles of PCR consisting of 15 seconds at 95° C., 20 seconds at 55° C. and 20 seconds at 72° C. The results obtained were corrected by comparing with the results for a housekeeping gene in the form of G3PDH. • Forward primer: […] (SEQ ID NO. 1) • Reverse primer: […] (SEQ ID NO. 2)
IL-4 (final concentration: 0.1, 1.0 or 10 ng/ml), TNF-α (final concentration: 0.1, 1.0 or 10 ng/ml) and IFN-γ (final concentration: 1.0, 10 or 100 ng/ml) were respectively added to proliferative stage cultured keratinocytes, and after incubating for 24 hours, RNA was collected using Isogen. Expression of bleomycin hydrolase mRNA was measured by quantitative PCR. Based on the results shown in FIG. 14, interleukin-4 (IL-4), which is a type of Th2 cytokine, was determined to down-regulate expression of bleomycin hydrolase.

BH mRNA = assay: Real-time RT-PCR analysis of BH gene expression under cytokines (Experiment 6, FIG. 20A); conditions: proliferative keratinocytes, 24 hours, ratio to untreated control
Experimental: as §1
(§2) The transcription levels of BH and related factors were analyzed by quantitative real-time RT-PCR. Total RNA was extracted from cultured cells using Isogen (Nippon Gene, Tokyo, Japan) in accordance with the manufacturer's protocol. The total RNA was reverse-transcribed to cDNA using SuperScript™ II (Invitrogen, Carlsbad, Calif.). Real-time RT-PCR was carried out with the LightCycler Raid Cycler System using the LightCycler 480 SYBR Green I Master (Roche Diagnostics) in accordance with the manufacturer's protocol. Glyceraldehyde 3-phosphate dehydrogenase (GAPDH) was used as a reference gene. Specificity of the amplified fragments was confirmed by quantitative analysis of melting curves using LightCycler analytical software. The amounts of mRNA were standardized based on the mRNA of GAPDH and finally indicated as a ratio to mRNA of an untreated control.
Since BH is an NMF-generating enzyme, it has the potential to be involved in the pathophysiology of AD. Accordingly, an investigation was made of the effects of cytokines Th1, Th2 and Th17 on BH gene expression. […] Similar results were obtained with differentiated keratinocytes (data not shown). A promoter assay was carried out in order to determine the role of IFN-γ in regulation of BH gene expression, and response elements were specified. […] In addition, IRF-1 and IRF-2 gene expression was inhibited using small interfering RNA (siRNA) in order to determine whether or not IRF-1/2 is an essential mediator of IFN-γ-induced down-regulation of BH.

BH promoter = BH promoter luciferase assay in transfected keratinocytes (FIG. 20B)
Experimental: The graphs indicate the effects of cytokines Th1, Th2 and Th17 on BH gene expression. […] The graphs indicate BH promoter activity in cultured keratinocytes in the presence of IFN-γ. Keratinocytes were transfected with pGL3-216 containing intact IRF-1/2 binding sites of BH promoter regions followed by treating for 24 hours with IFN-γ (upper panel). Keratinocytes were transfected with ΔpGL3-616 (IRF-1/2 deletion mutants) followed by treating for 24 hours in the presence or absence of IFN-γ or IL-4 at 10 ng/ml (lower panel). […] Keratinocytes were transfected with siRNA (40 nM) of IRF-1 or IRF-2 followed by culturing for 24 hours, treating with IFN-γ at 10 ng/ml and isolating RNA after further culturing for 24 hours. The panel on the right indicates the silencing effects of IRF-1 and IRF-2.
Keratinocytes were cultured in a 12-well tissue culture plate at a density of 5×10^4 cells/well, and were transfected using FuGene HD Transfection reagent (Roche Diagnostics, Basel, Switzerland) and 1 μg aliquots of each construct. […] Luciferase activity was analyzed using the Dual Luciferase Reporter Assay System (Promega) and Autolumat Plus Luminometer (Berthold Technologies, Bad Wildbad, Germany). […]

IRF-2 = assay: Real-time RT-PCR of transcription factor expression under cytokines (FIG. 22)
Experimental: as §2
(§3) An investigation was made of the cytokine-dependent regulation of these transcription factors.

IRF-1 mRNA = assay: as above
Experimental: as §2, §3

Sp-1 = assay: as above
Experimental: as §2, §3

MZF-1 = assay: as above
Experimental: as §2, §3

[1] = cultured keratinocytes, concentration not given

Substance | expression of bleomycin hydrolase mRNA (bleomycin hydrolase mRNA) | expression of BH mRNA (BH mRNA) | expression of BH mRNA (BH mRNA; listed as IFN) | BH promoter activity after deletion of IRF-1/2 binding sequence (BH promoter; keratinocytes transfected with IRF-1/2 deletion mutant, 10 ng/ml, 24 hours) | BH promoter activity (BH promoter; proliferative keratinocytes transfected with pGL3-BH-616 containing IRF-1/2 binding sequence, IFN-γ 24 hours) | expression of IRF-2 (IRF-2; in the presence of IFN-γ) | expression of IRF-1 mRNA (IRF-1 mRNA; IFN-γ, dose-dependent) | expression of Sp-1 (Sp-1; IL-4 at 10 ng/ml) | expression of Sp-1 (Sp-1; [1]) | expression of IRF-2 (IRF-2; IL-4 at 100 ng/ml only) | expression of MZF-1 (MZF-1; IL-4 at 10 ng/ml) | expression of MZF-1 (MZF-1; [1]) | expression of IRF-1 (IRF-1 mRNA; IL-4 at 100 ng/ml only)
IFN-γ: Human IFN-γ purchased from Peprotech EC; Th1 cytokine | significantly increases | down-regulated; also recorded: remarkably decreased | significantly decreased | no longer inhibited | down-regulated | up-regulated | strongly up-regulates | – | – | – | – | – | –
IL-4: Human IL-4 purchased from Peprotech EC; Th2 cytokine | down-regulates | did not demonstrate any direct action whatsoever | – | – | – | – | – | most effectively down-regulated | significantly inhibited; also recorded: down-regulated | significantly enhanced | most effectively down-regulated | significantly inhibited; also recorded: down-regulated | significantly enhanced
IL-13: Human IL-13 produced by R&D Systems Inc.; Th2 cytokine | – | did not demonstrate any direct action whatsoever | – | – | – | – | – | – | significantly inhibited | – | – | significantly inhibited | –
TNF-α | significantly increases | – | – | – | – | – | – | – | – | – | – | – | –
